In the NIST ThermoML archive (doi:10.1016/j.jct.2009.09.007):
Numbers after ± are expanded uncertainties.

Molecule `CCCCn1cc[n+](C)c1.F[B-](F)(F)F` [1-butyl-3-methylimidazolium tetrafluoroborate] has a surface tension liquid-gas (284.17 K, Wilhelmy plate method) of 45.29 ± 0.07 mN/m, a surface tension liquid-gas (284.25 K, Ring tensiometer) of 45.44 ± 0.61 mN/m and a surface tension liquid-gas (288.28 K, Wilhelmy plate method) of 44.98 ± 0.13 mN/m. It also gave a surface tension liquid-gas (288.35 K, Ring tensiometer) of 45.15 ± 0.6 mN/m, a surface tension liquid-gas (293.32 K, Wilhelmy plate method) of 44.56 ± 0.11 mN/m and a surface tension liquid-gas (293.48 K, Ring tensiometer) of 44.57 ± 0.6 mN/m. It also gave a surface tension liquid-gas (298.48 K, Wilhelmy plate method) of 44.26 ± 0.1 mN/m, a surface tension liquid-gas (298.5 K, Ring tensiometer) of 44.41 ± 0.59 mN/m and a surface tension liquid-gas (303.41 K, Wilhelmy plate method) of 43.84 ± 0.1 mN/m. The surface tension liquid-gas (303.51 K, Ring tensiometer) was 44.05 ± 0.59 mN/m, the surface tension liquid-gas (308.38 K, Wilhelmy plate method) was 43.68 ± 0.15 mN/m and the surface tension liquid-gas (308.42 K, Ring tensiometer) was 43.63 ± 0.59 mN/m. For the same molecule, the surface tension liquid-gas (313.73 K, Ring tensiometer) was 43.21 ± 0.58 mN/m, the surface tension liquid-gas (313.79 K, Wilhelmy plate method) was 43.21 ± 0.2 mN/m and the surface tension liquid-gas (318.15 K, Wilhelmy plate method) was 43 ± 0.15 mN/m. It also gave a surface tension liquid-gas (318.19 K, Ring tensiometer) of 43.19 ± 0.58 mN/m, a surface tension liquid-gas (323.01 K, Ring tensiometer) of 42.84 ± 0.58 mN/m and a surface tension liquid-gas (323.03 K, Wilhelmy plate method) of 42.58 ± 0.33 mN/m. The surface tension liquid-gas (327.8 K, Wilhelmy plate method) was 42.46 ± 0.1 mN/m, the surface tension liquid-gas (327.9 K, Ring tensiometer) was 42.62 ± 0.57 mN/m and the surface tension liquid-gas (333.11 K, Wilhelmy plate method) was 42.15 ± 0.27 mN/m. It also gave a surface tension liquid-gas (333.12 K, Ring tensiometer) of 42.07 ± 0.57 mN/m, a surface tension liquid-gas (337.64 K, Wilhelmy plate method) of 41.96 ± 0.1 mN/m and a surface tension liquid-gas (337.65 K, Ring tensiometer) of 41.78 ± 0.56 mN/m. It also gave a surface tension liquid-gas (342.32 K, Ring tensiometer) of 41.71 ± 0.56 mN/m, a surface tension liquid-gas (342.4 K, Wilhelmy plate method) of 41.56 ± 0.34 mN/m and a surface tension liquid-gas (348.62 K, Ring tensiometer) of 41.16 ± 0.56 mN/m. The surface tension liquid-gas (348.74 K, Wilhelmy plate method) was 41.3 ± 0.19 mN/m, the surface tension liquid-gas (351.23 K, Wilhelmy plate method) was 40.89 ± 0.18 mN/m and the surface tension liquid-gas (351.44 K, Ring tensiometer) was 40.85 ± 0.56 mN/m.
`CCn1cc[n+](C)c1.O=S(=O)([N-]S(=O)(=O)C(F)(F)F)C(F)(F)F` showed a surface tension liquid-gas (283.16 K, Wilhelmy plate method) of 36.78 ± 0.07 mN/m, a surface tension liquid-gas (283.2 K, Ring tensiometer) of 37.07 ± 0.51 mN/m and a surface tension liquid-gas (287.3 K, Wilhelmy plate method) of 36.58 ± 0.07 mN/m. For the same molecule, the surface tension liquid-gas (292.6 K, Wilhelmy plate method) was 36.35 ± 0.06 mN/m, the surface tension liquid-gas (297.89 K, Wilhelmy plate method) was 36.13 ± 0.06 mN/m and the surface tension liquid-gas (297.95 K, Ring tensiometer) was 36.12 ± 0.64 mN/m. It also gave a surface tension liquid-gas (302.66 K, Wilhelmy plate method) of 35.88 ± 0.06 mN/m, a surface tension liquid-gas (308.82 K, Wilhelmy plate method) of 35.61 ± 0.06 mN/m and a surface tension liquid-gas (313.3 K, Wilhelmy plate method) of 35.36 ± 0.04 mN/m. For the same molecule, the surface tension liquid-gas (317.77 K, Wilhelmy plate method) was 35.14 ± 0.07 mN/m, the surface tension liquid-gas (323.16 K, Ring tensiometer) was 34.81 ± 0.48 mN/m and the surface tension liquid-gas (323.19 K, Wilhelmy plate method) was 34.84 ± 0.04 mN/m. It also gave a surface tension liquid-gas (327.91 K, Wilhelmy plate method) of 34.66 ± 0.04 mN/m, a surface tension liquid-gas (327.97 K, Ring tensiometer) of 34.73 ± 0.48 mN/m and a surface tension liquid-gas (333.82 K, Wilhelmy plate method) of 34.29 ± 0.18 mN/m. The surface tension liquid-gas (333.86 K, Ring tensiometer) was 34.1 ± 0.47 mN/m, the surface tension liquid-gas (337.84 K, Wilhelmy plate method) was 34.06 ± 0.13 mN/m and the surface tension liquid-gas (337.88 K, Ring tensiometer) was 34.09 ± 0.47 mN/m. For the same molecule, the surface tension liquid-gas (343.6 K, Wilhelmy plate method) was 33.79 ± 0.23 mN/m, the surface tension liquid-gas (346.9 K, Ring tensiometer) was 33.74 ± 0.47 mN/m and the surface tension liquid-gas (346.93 K, Wilhelmy plate method) was 33.66 ± 0.16 mN/m. For the same molecule, the surface tension liquid-gas (351.54 K, Wilhelmy plate method) was 33.42 ± 0.18 mN/m and the surface tension liquid-gas (351.67 K, Ring tensiometer) was 33.2 ± 0.46 mN/m.
`CCCCCC[n+]1ccn(C)c1.O=S(=O)([N-]S(=O)(=O)C(F)(F)F)C(F)(F)F` showed a surface tension liquid-gas (283.17 K, Wilhelmy plate method) of 32.34 ± 0.09 mN/m, a surface tension liquid-gas (287.86 K, Wilhelmy plate method) of 32.07 ± 0.16 mN/m and a surface tension liquid-gas (293.15 K, Wilhelmy plate method) of 31.81 ± 0.06 mN/m. It also gave a surface tension liquid-gas (298.26 K, Wilhelmy plate method) of 31.59 ± 0.07 mN/m, a surface tension liquid-gas (303.16 K, Wilhelmy plate method) of 31.34 ± 0.07 mN/m and a surface tension liquid-gas (308.99 K, Wilhelmy plate method) of 30.99 ± 0.11 mN/m. For the same molecule, the surface tension liquid-gas (314.39 K, Wilhelmy plate method) was 30.71 ± 0.06 mN/m, the surface tension liquid-gas (318.21 K, Wilhelmy plate method) was 30.48 ± 0.07 mN/m and the surface tension liquid-gas (323.09 K, Wilhelmy plate method) was 30.26 ± 0.09 mN/m. For the same molecule, the surface tension liquid-gas (327.93 K, Wilhelmy plate method) was 30 ± 0.09 mN/m, the surface tension liquid-gas (333.53 K, Wilhelmy plate method) was 29.8 ± 0.13 mN/m and the surface tension liquid-gas (337.7 K, Wilhelmy plate method) was 29.45 ± 0.11 mN/m. It also gave a surface tension liquid-gas (342.32 K, Wilhelmy plate method) of 29.28 ± 0.18 mN/m, a surface tension liquid-gas (347.3 K, Wilhelmy plate method) of 29.06 ± 0.13 mN/m and a surface tension liquid-gas (351.11 K, Wilhelmy plate method) of 28.91 ± 0.32 mN/m.
`CCCC[n+]1ccn(C)c1.O=S(=O)([N-]S(=O)(=O)C(F)(F)F)C(F)(F)F` gave a surface tension liquid-gas (284.15 K, Wilhelmy plate method) of 33.46 ± 0.11 mN/m, a surface tension liquid-gas (284.19 K, Ring tensiometer) of 33.48 ± 0.47 mN/m and a surface tension liquid-gas (287.81 K, Wilhelmy plate method) of 33.27 ± 0.11 mN/m. For the same molecule, the surface tension liquid-gas (294.2 K, Wilhelmy plate method) was 33.02 ± 0.06 mN/m, the surface tension liquid-gas (298.35 K, Wilhelmy plate method) was 32.85 ± 0.06 mN/m and the surface tension liquid-gas (298.41 K, Ring tensiometer) was 33.04 ± 0.46 mN/m. It also gave a surface tension liquid-gas (301.96 K, Wilhelmy plate method) of 32.66 ± 0.07 mN/m, a surface tension liquid-gas (306.81 K, Wilhelmy plate method) of 32.44 ± 0.07 mN/m and a surface tension liquid-gas (310.81 K, Wilhelmy plate method) of 32.26 ± 0.07 mN/m. The surface tension liquid-gas (317.93 K, Ring tensiometer) was 31.97 ± 0.45 mN/m, the surface tension liquid-gas (317.94 K, Wilhelmy plate method) was 31.97 ± 0.06 mN/m and the surface tension liquid-gas (322.99 K, Wilhelmy plate method) was 31.74 ± 0.04 mN/m. For the same molecule, the surface tension liquid-gas (327.92 K, Wilhelmy plate method) was 31.58 ± 0.07 mN/m, the surface tension liquid-gas (332.97 K, Wilhelmy plate method) was 31.3 ± 0.07 mN/m and the surface tension liquid-gas (337.12 K, Wilhelmy plate method) was 31.17 ± 0.22 mN/m. For the same molecule, the surface tension liquid-gas (343.28 K, Wilhelmy plate method) was 30.91 ± 0.23 mN/m, the surface tension liquid-gas (347.82 K, Wilhelmy plate method) was 30.76 ± 0.15 mN/m and the surface tension liquid-gas (348.05 K, Ring tensiometer) was 30.41 ± 0.43 mN/m. It also gave a surface tension liquid-gas (351.56 K, Wilhelmy plate method) of 30.53 ± 0.13 mN/m.
